Molecules are shown by their SMILES.

For the assay, the target named is T1, human histamine H3 receptor (Homo sapiens, UniProt Q9Y5N1).
T1 construct: host or cells: cells expressing the human H3 receptor
T1 sequence (Q9Y5N1 whole entry): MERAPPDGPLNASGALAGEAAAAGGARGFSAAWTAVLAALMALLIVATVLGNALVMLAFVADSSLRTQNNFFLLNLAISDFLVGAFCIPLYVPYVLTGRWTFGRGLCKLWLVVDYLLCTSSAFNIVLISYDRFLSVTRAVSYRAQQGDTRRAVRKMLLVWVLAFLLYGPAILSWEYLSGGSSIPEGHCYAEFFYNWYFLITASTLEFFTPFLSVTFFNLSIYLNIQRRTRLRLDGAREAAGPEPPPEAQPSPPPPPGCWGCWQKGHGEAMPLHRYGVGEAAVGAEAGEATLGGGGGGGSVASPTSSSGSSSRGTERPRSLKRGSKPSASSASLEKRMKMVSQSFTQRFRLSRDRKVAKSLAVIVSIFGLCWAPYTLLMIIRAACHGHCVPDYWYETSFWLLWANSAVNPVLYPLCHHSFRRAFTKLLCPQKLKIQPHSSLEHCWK
The assay can be described thus: H3 GTPγS assay (SPA method), histamine H3 in vitro assay. It is filed as biochemical. The settings on record: GTPγ[35S] binding to membranes of cells expressing human H3; antagonist mode with R-γ-Me-Histamine at EC80 (30 nM); in one embodiment HCl salts tested; read-out: Potency (functional potency as indicated by IC50). On the procedure: H3 GTPγS assay (SPA method) was performed at EuroScreen (Belgium, ES-392-C) using conventional methods. Briefly, cells expressing the human histamine H3 receptor were homogenized in 15 mM Tris-HCl pH 7.5, 2 mM MgCl2, 0.3 mM EDTA, and 1 mM EGTA. Membranes were washed twice in the above tris buffer, collected by centrifugation (40,000×g, 25 min), and re-suspended in 75 mM Tris-HCl pH 7.5, 12.5 mM MgCl2, 0.3 mM EDTA, 1 mM EGTA, and 250 mM sucrose. Membranes were frozen in liquid nitrogen until use. On the day of the assay, membranes were thawed and diluted in assay buffer (20 mM HEPES pH 7.4, 100 mM NaCl, 10 μg/ml saponin, 1 mM MgCl2) to give 500 μg/ml and mixed (v/v) with GDP in assay buffer for a final GDP concentration of 10 μM and incubated on ice for at least 15 min. PVT-WGA beads (Amersham, RPNQ001) were diluted in assay buffer at 50 mg/mL and mixed with GTPγ[^35S] (Amersham, SJ1308) diluted in assay buffer to give ˜25,000 dpm/10 μL and mixed vol/vol just before the start of the reaction. The reaction was started by adding 50 μL of test compound, 20 μL of the membranes:GDP mix, 10 μL of buffer, and 20 μL of the GTPγ[^35S]:beads mix in a 96 well plate Optiplate™ (PerkinElmer, 6005299) covered with topseal (TopCount™, PerkinElmer), mixed with an orbital shaker for 2 min, incubated for 1 hour at room temperature, centrifuged for 10 min at 2000 rpm, incubated for 1 h at room temperature, and counted for 1 min in a TopCount™ reader (PerkinElmer). Dose response curves and IC50 values (concentration to inhibit the reaction by 50%) were calculated by nonlinear regression using XLfit software (IDBS).
For antagonists testing, 10 μL of a reference agonist (R-γ-Me-Histamine) instead of 10 μL buffer was added at a concentration corresponding to the EC80 (30 nM). Control ligands were R-γ-Me-Histamine (Tocris, 0569), Imetit (Sigma, I-135), Thioperamide (Tocris, 0644), and Clobenpropit (Tocris, 0754) diluted in assay buffer.
The compounds provided herein were tested in the histamine H3 in vitro assay. In one embodiment, the respective HCl salts of the compounds provided herein were prepared using standard chemical procedures and tested in the histamine H3 in vitro assay.
As for `CC1CCC(N2CCc3nc4cc(-c5ccc(C#N)cc5)ccc4n3CC2)CC1` (mixture of isomers) [Compound 37, cis/trans-4-(3-(4-methylcyclohexyl)-2,3,4,5-tetrahydro-1H-[1,4]diazepino[1,7-a]benzimidazol-9-yl)benzonitrile], the IC50 was ≥ 1 µM.

`CC1CCC(N2CCc3nc4cc(-c5ccc(C#N)cc5)ccc4n3CC2)C1` (racemic) [Compound 34, rac-cis/trans-4-(3-(3-methylcyclopentyl)-2,3,4,5-tetrahydro-1H-[1,4]diazepino[1,7-a]benzimidazol-9-yl)benzonitrile]: the IC50 is ≤ 0.1 µM.

Regarding `CC1CCCC1N1CCc2nc3cc(-c4ccc(C#N)cc4)ccc3n2CC1` (racemic) [Compound 35, rac-cis/trans-4-(3-(2-methylcyclopentyl)-2,3,4,5-tetrahydro-1H-[1,4]diazepino[1,7-a]benzimidazol-9-yl)benzonitrile], the IC50 was ≤ 0.01 µM.

With `c1cc2c(cc1N1CCN(C3CCOC3)CC1)nc1n2CCN(C2CCC2)CC1` (racemic) [Compound 101, rac-3-cyclobutyl-9-(4-(tetrahydrofuran-3-yl)piperazin-1-yl)-2,3,4,5-tetrahydro-1H-[1,4]diazepino[1,7-a]benzimidazole], the half-inhibitory concentration (IC50) was ≤ 0.01 µM.

As for `NCc1ccc(-c2ccc3c(c2)nc2n3CCN(C3CCC3)CC2)cc1` [Compound 1, 3-cyclobutyl-9-(4-(aminomethyl)phenyl)-2,3,4,5-tetrahydro-1H-[1.4]diazepino[1,7-a]benzimidazole], the IC50 was ≤ 0.01 µM.

On to `N#Cc1ccc(-c2ccc3c(c2)nc2n3CCN(C3CCC3)CC2)cc1` [Compound 2], for which the IC50 is ≤ 0.01 µM.

For the compound `CC(=O)Nc1ccc(-c2ccc3c(c2)nc2n3CCN(C3CCC3)CC2)cc1` [Compound 3], the IC50 is ≤ 0.01 µM.

`c1cc2cc(-c3ccc4c(c3)nc3n4CCN(C4CCC4)CC3)ccc2[nH]1` [Compound 4]: the IC50 was ≤ 0.1 µM.

Regarding `CC(C1CCC1)N1CCc2nc3cc(-c4ccc(CN)cc4)ccc3n2CC1` (stereo not drawn) [Compound 5], the IC50 was ≤ 0.1 µM.

As for `CC(C1CCC1)N1CCc2nc3cc(-c4ccc(C#N)cc4)ccc3n2CC1` (stereo not drawn) [Compound 6], the concentration for half-maximal inhibition (IC50) was ≤ 0.1 µM.

On to `CC(=O)Nc1ccc(-c2ccc3c(c2)nc2n3CCN(C(C)C3CCC3)CC2)cc1` (stereo not drawn) [Compound 7], for which the IC50 is ≤ 1 µM.

Consider `CC(=O)Nc1ccc(-c2ccc3c(c2)nc2n3CCN(C3CCN(C)CC3)CC2)cc1` [Compound 9, N-(4-(3-(1-methylpiperidin-4-yl)-2,3,4,5-tetrahydro-1H-[1,4]diazepino[1,7-a]benzimidazol-9-yl)phenyl)acetamide], for which the IC50 is ≤ 1 µM.

`CC(C1CCC1)N1CCc2nc3cc(-c4ccc5[nH]ccc5c4)ccc3n2CC1` (stereo not drawn) [Compound 10]: the IC50 is ≥ 1 µM.

On to `CC(C1CCC1)N1CCc2nc3cc(Cl)ccc3n2CC1` (stereo not drawn) [Compound 11], for which the IC50 was ≥ 1 µM.

For `CN1CCC(N2CCc3nc4cc(-c5ccc6[nH]ccc6c5)ccc4n3CC2)CC1` [Compound 13], the IC50 was ≥ 1 µM.

Turning to `Clc1ccc2c(c1)nc1n2CCN(Cc2cnc[nH]2)CC1` [Compound 15], the IC50 was ≥ 1 µM.

Regarding `CN1CCC(N2CCc3nc4cc(-c5ccc(CN)cc5)ccc4n3CC2)CC1` [Compound 16], the IC50 was ≥ 1 µM.

Take `NCc1ccc(-c2ccc3c(c2)nc2n3CCN(Cc3cnc[nH]3)CC2)cc1` [Compound 17]: the IC50 is ≥ 1 µM.

In the case of `N#Cc1ccc(-c2ccc3c(c2)nc2n3CCN(Cc3cnc[nH]3)CC2)cc1` [Compound 18], the IC50 was ≥ 1 µM.

With `CC(=O)Nc1ccc(-c2ccc3c(c2)nc2n3CCN(Cc3cnc[nH]3)CC2)cc1` [Compound 19], the IC50 was ≥ 1 µM.

As to `c1ncc(CN2CCc3nc4cc(-c5ccc6[nH]ccc6c5)ccc4n3CC2)[nH]1` [Compound 20], the IC50 was ≥ 1 µM.

On to `Brc1ccc2c(c1)nc1n2CCN(C2CCC2)CC1` [Compound 21], for which the IC50 was ≤ 1 µM.

Regarding `N#Cc1ccc(-c2ccc3c(c2)nc2n3CCN(C3CCC3)CC2)cc1F` [Compound 22], the IC50 is ≤ 0.01 µM.

Take `c1cnc(-c2ccc3c(c2)nc2n3CCN(C3CCC3)CC2)cn1` [Compound 24]: the IC50 was ≤ 0.01 µM.

In the case of `Cc1nn(C)c(C)c1-c1ccc2c(c1)nc1n2CCN(C2CCC2)CC1` [Compound 26], the IC50 is ≤ 1 µM.

As for `N#Cc1ccc(-c2ccc3c(c2)nc2n3CCN(C3CCC3)CC2)cn1` [Compound 27, 5-(3-cyclobutyl-2,3,4,5-tetrahydro-1H-[1,4]diazepino[1,7-a]benzimidazol-9-yl)-picolinonitrile], the IC50 was ≤ 0.01 µM.

Turning to `c1cnc2[nH]cc(-c3ccc4c(c3)nc3n4CCN(C4CCC4)CC3)c2c1` [Compound 31], the IC50 is ≤ 0.01 µM.

For the compound `CC(C)N1CCc2nc3cc(-c4ccc(C#N)cc4)ccc3n2CC1` [Compound 32, 4-(3-isopropyl-2,3,4,5-tetrahydro-1H-[1,4]diazepino[1,7-a]benzimidazol-9-yl)benzonitrile], the IC50 is ≤ 0.1 µM.

Regarding `N#Cc1ccc(-c2ccc3c(c2)nc2n3CCN(C3CCOCC3)CC2)cc1` [Compound 38], the IC50 is ≤ 0.1 µM.

`N#Cc1ccc(-c2ccc3c(c2)nc2n3CCN(CC3CC3)CC2)cc1` [Compound 39]: the IC50 was ≤ 0.1 µM.

Take `Brc1ccc2nc3n(c2c1)CCN(C1CCC1)CC3` [Compound 40]: the IC50 is ≤ 0.1 µM.

As for `N#Cc1ccc(-c2ccc3nc4n(c3c2)CCN(C2CCC2)CC4)cc1` [Compound 41], the IC50 was ≤ 1 µM.

On to `CC(=O)Nc1ccc(-c2ccc3nc4n(c3c2)CCN(C2CCC2)CC4)cc1` [Compound 42], for which the IC50 was ≤ 1 µM.

On to `c1cc2cc(-c3ccc4nc5n(c4c3)CCN(C3CCC3)CC5)ccc2[nH]1` [Compound 43], for which the IC50 is ≤ 1 µM.

Regarding `NCc1ccc(-c2ccc3nc4n(c3c2)CCN(C2CCC2)CC4)cc1` [Compound 44], the IC50 is ≤ 0.1 µM.

As for `c1cc2nc3n(c2cc1-c1cn[nH]c1)CCN(C1CCC1)CC3` [Compound 49, 3-cyclobutyl-9-(1H-pyrazol-4-yl)-2,3,4,5-tetrahydro-1H-[1,4]diazepino[1,7-a]benzimidazole], the IC50 was ≤ 1 µM.

`CNC(=O)c1ccc(Oc2ccc3c(c2)nc2n3CCN(C3CCC3)CC2)nc1` [Compound 50, 6-(3-cyclobutyl-2,3,4,5-tetrahydro-1H-[1,4]diazepino[1,7-a]benzimidazol-9-yloxy)-N-methylnicotinamide]: the IC50 is ≤ 0.01 µM.

For `c1cnc(Oc2ccc3c(c2)nc2n3CCN(C3CCC3)CC2)cn1` [Compound 51], the IC50 was ≤ 0.1 µM.

With `N#Cc1ccc(COc2ccc3c(c2)nc2n3CCN(C3CCC3)CC2)cc1` [Compound 53], the IC50 is ≤ 0.01 µM.

`N#Cc1ccc2c(c1)nc1n2CCN(C2CCC2)CC1` [Compound 54]: the IC50 was ≤ 1 µM.

Regarding `O=C(c1ccc2c(c1)nc1n2CCN(C2CCC2)CC1)N1CCOCC1` [Compound 56], the IC50 is ≤ 0.1 µM.

`CN(C)C(=O)c1ccc2c(c1)nc1n2CCN(C2CCC2)CC1` [Compound 57]: the IC50 was ≤ 1 µM.

Turning to `CN1CCN(C(=O)c2ccc3c(c2)nc2n3CCN(C3CCC3)CC2)CC1` [Compound 58], the IC50 was ≤ 1 µM.

With `O=C(c1ccc2c(c1)nc1n2CCN(C2CCC2)CC1)N1CCCC1` [Compound 60], the IC50 is ≤ 0.1 µM.

Turning to `N#Cc1ccc(NC(=O)c2ccc3c(c2)nc2n3CCN(C3CCC3)CC2)cc1` [Compound 61, 3-cyclobutyl-N-(4-cyanophenyl)-2,3,4,5-tetrahydro-1H-[1,4]diazepino[1,7-a]benzimidazole-9-carboxamide], the IC50 was ≤ 0.1 µM.

Regarding `Fc1ccc(CNc2ccc3c(c2)nc2n3CCN(C3CCC3)CC2)cc1` [Compound 62], the IC50 is ≤ 0.1 µM.

For `N#Cc1ccc(CNc2ccc3c(c2)nc2n3CCN(C3CCC3)CC2)cc1` [Compound 63], the IC50 is ≤ 0.1 µM.

For the compound `COc1ccnc(Nc2ccc3c(c2)nc2n3CCN(C3CCC3)CC2)n1` [Compound 64], the IC50 was ≤ 0.1 µM.

For `c1cnc(Nc2ccc3c(c2)nc2n3CCN(C3CCC3)CC2)cn1` [Compound 65, 3-cyclobutyl-N-(pyrazin-2-yl)-2,3,4,5-tetrahydro-1H-[1,4]diazepino[1,7-a]benzimidazol-9-amine], the IC50 was ≤ 0.1 µM.

Consider `c1cn(-c2ccc3c(c2)nc2n3CCN(C3CCC3)CC2)cn1` [Compound 66], for which the IC50 is ≤ 0.01 µM.

Consider `c1ccc2c(c1)ncn2-c1ccc2c(c1)nc1n2CCN(C2CCC2)CC1` [Compound 68], for which the 50% inhibitory concentration (IC50) was ≤ 0.01 µM.

Source of the values: patent US8404670B2 (Sunovion Pharmaceuticals Inc., priority 2009, dated 2013).
